Read-outs that look alike come from different tables or passages of the source.
Legend:
caspase-3 = assay: Caspase-3 fluorescence assay, MDA-MB-231; format: cell-based, human; conditions: 12 h
Procedure: The caspase-3 activity in the presence of IPA/NO-ASA and DEA/NO-ASA was measured using caspase-3 fluorescence assay kit (Cat No. 10009135, Cayman Chemical). Cells were plated at a concentration of 50,000 cells per well in a 96 well plate and grown overnight. Then the cells were treated with different concentrations of the compounds and controls for 12 h. After 12 h, the plate was centrifuged at 800 g and the media was removed by aspiration. 100 μL of lysis buffer was added to each well and the plate was incubated for […] at room temperature. 100 μL of a caspase-3 substrate solution was added to each well and incubated for 30 min after which the fluorescence was read at excitation of 485 nm and emission of 535 nm.

stomach ulcers = assay: Ulcerogenicity (ulcer index) after oral administration; format: in vivo, rats; conditions: for Ulcer Index: 6 h after oral administration, equivalent to 250 mg/kg aspirin; for UI (ulcer index): as given in the text
Procedure: Ulcerogenicity was evaluated 6 h after oral administration of 250 mg/kg of aspirin (250 mg/kg) and an equivalent amount of the corresponding test compound. The compounds were suspended in 1.7 mL of a 1% methylcellulose solution and administered. The control rats received oral administration of a vehicle (1.7 mL of 1.0% methylcellulose solution). The rats were euthanized in a CO2 chamber and their stomachs and placed on ice and then the ulcers were studied using magnifying glass.

MCF-7 cells = assay: MTT cell survival, MCF-7; format: cell-based, human; conditions: MTT assay
Procedure: (§1) MDA-MB-231, MCF-7 and MDA-MB-468, human breast carcinoma cell lines and MCF-10A, breast […] (American Type Culture Collection, Manassas, Va.) were grown as monolayers in RPMI 1640 supplemented with 10% FCS (Hyclone), penicillin (50 units/ml), streptomycin ([…]; Life Technologies, Inc., Grand Island, N.Y.) and endothelial growth media (Lonanza) respectively. Cells were seeded at a density of 1×10^6 cells/100-cm^2 culture dish and incubated at 37° C. in 5% CO2 and 80% relative humidity. Single-cell suspensions were obtained by trypsinization (0.05% trypsin/EDTA), and cells were counted using a Beckman cell counter.
(§2) 1000× stock solutions aspirin, of a DEA/NO-ASA, and IPA/NO-ASA were made in DMSO and final concentration in the media or PBS was adjusted to 0.1% DMSO.
(§3) The effect of NONO-aspirin on cell proliferation was studied using an MTT assay. The effect of DEA/NO-ASA, IPA/NO-ASA, aspirin, IPA/NO and DEA/NO was measured using the MTT assay. Cells were plated at a concentration of 8,000-10,000 cells per well in a 96 well plate and grown overnight. Cells were treated with different concentrations of the compounds and controls for 48 h. After 48 h, a solution of 5 mg/ml MTT was added to each well and incubated for 1 h. Then the media was removed from each well and 100 uL DMSO was added to each well and the absorbance was read at 550 nm. […]

COX-2 mRNA = assay: COX mRNA levels; format: cell-based; conditions: Control 1.0
Excerpt: PGE2 levels are a direct measure of COX-2 activity. […] Increased COX-2 expression in the presence of aspirin has been reported previously (Davies et al., Alimentary Pharm. & Ther. 11(6):1101-08 (1997))). Both DEA/NO and DEA/NO-aspirin seem to augment the effect of aspirin while IPA/NO and IPA/NO-aspirin nullifies the effect and brings it back to the control level (Table 3).

A549 cells = assay: Intracellular NO/HNO by DAF-FM diacetate in A549 cells; format: cell-based
Procedure: The intracellular NO and HNO were determined by using 4-amino-5-methylamino-2′,7′-difluorofluorescein diacetate (DAF-FM diacetate) as the reporter molecule. Cells were plated at a concentration of 30,000 cells per well in a 96 cell plate and grown overnight. Then DAF-FM diacetate in DMSO was added to each well with a final concentration of 10 μM and incubated for 30 min. Each well was washed three times with PBS pH 7.4. The desired compound was then added and the fluorescence was measured at an excitation of 485 nm and emission of 535 nm using PerkinElmer HTS 7000 plate reader.
Both NO and HNO increased the fluorescence of DAF. The NO/HNO release profiles for compounds 4 and 8 within A549 cells were determined by loading the cells with DAF-FM diacetate, a cell permeable dye, which is cleaved by esterase to form DAF-FM and reacts with NO to form benzotriazole derivative with an excitation of 495 nm and emission of 515 nm (Kojima et al., Chemical & Pharm. Bulletin, 462 373-75 (1998)). […] Both 4 and 8 show temporal release in the presence and absence of cells. […] Moreover, when DAF-FM diacetate is present both inside and outside the cells, the fluorescence intensity is ten times higher than that without cells.

breast cancer cells = assay: MTT cell survival, breast cancer cells (cell line not given); format: cell-based, human; conditions: 48 h of treatment, cell line not named
Procedure: The effect of NONO-aspirin on cell proliferation was studied using an MTT assay. The effect of DEA/NO-ASA, IPA/NO-ASA, aspirin, IPA/NO and DEA/NO was measured using the MTT assay. Cells were plated at a concentration of 8,000-10,000 cells per well in a 96 well plate and grown overnight. Cells were treated with different concentrations of the compounds and controls for 48 h. After 48 h, a solution of 5 mg/ml MTT was added to each well and incubated for 1 h. Then the media was removed from each well and 100 uL DMSO was added to each well and the absorbance was read at 550 nm. Inhibition of growth with different treatments was reported as percentage of corresponding control.

[1] = test system: MB-231 breast cancer cell lines; assay: DAF assay of cell membrane penetration, MB-231; conditions: MB-231 cell line
Procedure: Intracellular NO/HNO release from the derivatized NSAIDs was determined using 4-amino-5-methylamino-2′,7′-difluorofluoroescein diacetate (DAF-FM diacetate) as in Example 9.

[2] = target: glyceraldehyde-3-phosphate dehydrogenase (GAPDH) (Homo sapiens, UniProt P04406); assay: GAPDH activity, MCF-7; format: cell-based; parameters: endogenous in cells; host or cells: MDA-MB-231, MDA-MB-468, MCF-7, MCF-10A; conditions: MCF-7, 100 μM
Chain of glyceraldehyde-3-phosphate dehydrogenase (GAPDH) (P04406 whole entry): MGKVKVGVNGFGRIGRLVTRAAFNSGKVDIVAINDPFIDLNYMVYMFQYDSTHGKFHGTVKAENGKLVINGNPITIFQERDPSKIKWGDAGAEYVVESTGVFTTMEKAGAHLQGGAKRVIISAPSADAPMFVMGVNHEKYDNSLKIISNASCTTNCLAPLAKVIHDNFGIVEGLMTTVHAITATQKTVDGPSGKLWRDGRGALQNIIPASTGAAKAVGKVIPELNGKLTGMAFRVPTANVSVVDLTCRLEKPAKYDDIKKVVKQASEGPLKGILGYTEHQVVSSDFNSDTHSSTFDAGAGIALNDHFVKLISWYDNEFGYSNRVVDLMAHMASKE
Procedure: Cells were plated at a concentration of 30,000 cells per well and grown overnight. Cells were treated with 100 μM IPA/NO-aspirin and DEA/NO-aspirin for 1, 3, and 6 h after which 200 μL of KDalert lysis buffer was added to each well. The plate was incubated at 4° C. for 20 min to lyse the cells. 10 μL of cell lysate was transferred to a clean 96 well plate and 90 μL of KDalert mastermix was added to each well and the fluorescence was measured at excitation of 540 nm and emission of 570 nm.

MB-468 cells = assay: MTT cell survival, MDA-MB-468; format: cell-based, human; conditions: MTT assay
Procedure: as §1, §2, §3

E-cadherin = E-cadherin expression in MDA-MB-231 cells; format: cell-based, human; conditions: MDA-MB-231, 100 μM, mRNA and protein level
Procedure: MDA-MB-231 cells were plated at a concentration of 500,000 cells per plate on 60 mm plate and grown overnight. They were then treated with 100 μM of IPA/NO-aspirin, DEA/NO-aspirin, IPA/NO, DEA/NO and aspirin for 1 to 24 h.

MB-231 cells = assay: MTT cell survival, MDA-MB-231; format: cell-based, human; conditions: MTT assay
Procedure: as §1, §2, §3

SMILES: CCN(CC)[N+]([O-])=NOCOC(=O)c1ccccc1OC(C)=O [DEA/NO-aspirin, O^2-(Acetylsalicyloyloxymethyl)-1-(N,N-Diethylamino)-diazen-1-ium-1,2-diolate]
- Caspase-3 Activity (caspase-3; MDA-MB-231, 25 μM): 0.25 U/mL
- Caspase-3 Activity (caspase-3; MDA-MB-231, 50 μM): 0.24 U/mL
- Caspase-3 Activity (caspase-3; MDA-MB-231, 100 μM): 0.31 U/mL
- Ulcer Index (stomach ulcers): 0 mg/kg
- UI (ulcer index) (stomach ulcers): 0
- IC50 (MCF-7 cells): 120 µM
- COX-2 mRNA level relative to control (COX-2 mRNA): 6.5
- cell penetration (A549 cells): permeated the cell membrane with minimal decomposition
- cell penetration (A549 cells; listed as 8): penetrate the cells
- IC50 (breast cancer cells): 75 µM
- cell membrane penetration [1]: penetrated cell membranes
- GAPDH Activity ([2]; 1 h): 0.080 U/mL
- GAPDH Activity ([2]; 3 h): 0.110 U/mL
- GAPDH Activity ([2]; 6 h): 0.130 U/mL
- IC50 (MB-468 cells): 85 µM
- E-cadherin level (E-cadherin): increased E-cadherin expression
- IC50 (MB-231 cells): 90 µM

SMILES: CC(=O)Oc1ccccc1C(=O)OCON=[N+]([O-])NC(C)C [IPA/NO-aspirin, O^2-(Acetylsalicyloyloxymethyl)-1-(N-isopropylamino)-diazen-1-ium-1,2-diolate]
- Caspase-3 Activity (caspase-3; MDA-MB-231, 25 μM): 0.40 U/mL
- Caspase-3 Activity (caspase-3; MDA-MB-231, 50 μM): 0.48 U/mL
- Caspase-3 Activity (caspase-3; MDA-MB-231, 100 μM): 0.55 U/mL
- Ulcer Index (stomach ulcers): 3.3 ± 3 mg/kg
- UI (ulcer index) (stomach ulcers): 3.0+3.0
- IC50 (MCF-7 cells): 90 µM
- COX-2 mRNA level relative to control (COX-2 mRNA): 0.8
- cell penetration (A549 cells): permeated the cell membrane with minimal decomposition
- cell penetration (A549 cells; listed as 4): penetrate the cells
- IC50 (breast cancer cells): 50 µM
- cell membrane penetration [1]: penetrated cell membranes
- GAPDH Activity ([2]; 1 h): <0.010 U/mL
- GAPDH Activity ([2]; 3 h): <0.010 U/mL
- GAPDH Activity ([2]; 6 h): <0.010 U/mL
- IC50 (MB-468 cells): 80 µM
- E-cadherin level (E-cadherin): did not show any significant change
- IC50 (MB-231 cells): 95 µM

Reference: patent US8633177B2, “Nitroxyl (HNO) releasing compounds and uses thereof in treating diseases” (The United States of America, as represented by the …, priority 2010, dated 2014)
